# Activity calls are given as the source filed them. The rule behind the calls is not given here.
# Tests used:
# MDA-MB-231 [1] = experiment: Cytotoxicity against human MDA-MB-231 cells assessed as reduction in cell viability incubated for 72 hrs by MTT assay; format: functional, cell-based; conditions: MDA-MB-231, 72 h
# A549 = experiment: Cytotoxicity against human A549 cells assessed as reduction in cell viability incubated for 72 hrs by MTT assay; format: functional, cell-based; conditions: A549, 72 h
# [2] = Cytotoxicity against human IMR-90 cells assessed as reduction in cell viability incubated for 72 hrs by MTT assay; format: toxicity, cell-based
# MDA-MB-231 [3] = experiment: Cytotoxicity against human MDA-MB-231 cells assessed as reduction in cell viability at 0.5 uM measured after 72 hrs by MTT assay; format: functional
# [4] = Cytotoxicity against human MRC5 cells assessed as reduction in cell viability incubated for 72 hrs by MTT assay; format: toxicity, cell-based
# [5] = target: Histone chaperone ASF1A (Homo sapiens) (UniProt Q9Y294); experiment: Inhibition of ASF1a phosphorylation at S166 residue in human MDA-MB-231 cells at 10 uM incubated for 4 hrs by Western blot analysis; format: cell-based
# Histone chaperone ASF1A (Homo sapiens), sequence (Q9Y294 whole entry): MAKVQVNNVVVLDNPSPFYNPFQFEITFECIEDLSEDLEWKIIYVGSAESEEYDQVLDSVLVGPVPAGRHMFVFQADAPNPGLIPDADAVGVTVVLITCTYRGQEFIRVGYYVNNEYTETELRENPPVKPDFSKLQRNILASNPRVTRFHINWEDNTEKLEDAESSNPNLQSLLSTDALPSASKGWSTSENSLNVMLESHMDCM
# HCT-116 = experiment: Cytotoxicity against human HCT-116 cells assessed as reduction in cell viability incubated for 72 hrs by MTT assay; format: functional, cell-based; conditions: HCT-116, 72 h
# [6] = target: T1, Serine/threonine-protein kinase tousled-like 2 (Homo sapiens, UniProt Q86UE8); experiment: Inhibition of full length FLAG/HA/Strep-tagged TLK2 (unknown origin) transfected in HEK293T cells assessed as reduction in ASF1a phosphorylation at S166 residue at 5 uM by Western blot analysis; format: cell-based
# Target sequence in this assay (Q86UE8 whole entry, looked up): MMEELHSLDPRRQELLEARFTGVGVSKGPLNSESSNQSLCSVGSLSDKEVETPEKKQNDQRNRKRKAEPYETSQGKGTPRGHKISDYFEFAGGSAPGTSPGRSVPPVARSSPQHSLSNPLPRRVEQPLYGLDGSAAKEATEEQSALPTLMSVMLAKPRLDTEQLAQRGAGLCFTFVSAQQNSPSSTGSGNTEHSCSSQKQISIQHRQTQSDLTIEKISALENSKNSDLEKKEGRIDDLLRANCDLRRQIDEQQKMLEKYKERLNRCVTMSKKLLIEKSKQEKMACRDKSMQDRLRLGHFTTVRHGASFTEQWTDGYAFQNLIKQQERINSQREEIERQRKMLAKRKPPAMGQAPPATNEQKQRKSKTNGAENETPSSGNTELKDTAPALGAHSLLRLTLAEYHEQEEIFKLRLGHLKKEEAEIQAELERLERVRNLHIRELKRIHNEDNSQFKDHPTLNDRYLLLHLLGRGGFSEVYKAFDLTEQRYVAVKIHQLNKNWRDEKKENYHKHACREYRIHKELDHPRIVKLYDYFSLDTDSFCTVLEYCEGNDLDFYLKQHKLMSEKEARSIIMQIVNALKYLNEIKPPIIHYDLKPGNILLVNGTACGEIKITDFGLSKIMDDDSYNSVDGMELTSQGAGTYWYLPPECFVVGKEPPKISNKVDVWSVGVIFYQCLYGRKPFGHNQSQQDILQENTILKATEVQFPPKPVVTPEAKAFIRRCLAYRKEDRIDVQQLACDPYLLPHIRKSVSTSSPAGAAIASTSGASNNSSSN
# MDA-MB-231 [7] = experiment: Induction of DNA damage in human MDA-MB-231 cells at 10 uM incubated for 4 hrs by gel electrophoresis method; format: functional, cell-based
# MDA-MB-231 [8] = experiment: Effect on cell cycle progression in human MDA-MB-231 cells assessed as accumulation of cells at S phase at 2 uM by PI staining based flow cytometric analysis; format: functional
# MDA-MB-231 [9] = experiment: Induction of apoptosis in human MDA-MB-231 cells assessed as decrease in Bcl-xL level at 4 uM incubated for 72 hrs by gel electrophoresis method; format: functional, cell-based
# MDA-MB-231 [10] = experiment: Antiproliferative activity against human MDA-MB-231 cells assessed as reduction in cell growth at 0.25 uM by trypan blue assay; format: functional, cell-based
# MDA-MB-231 [11] = experiment: Antiproliferative activity against human MDA-MB-231 cells assessed as increase in cell death rate at 1 uM by trypan blue assay; format: functional, cell-based
# MDA-MB-231 [12] = experiment: Induction of apoptosis in human MDA-MB-231 cells assessed as decrease in MCL-1 level at 4 uM incubated for 72 hrs by gel electrophoresis method; format: functional, cell-based
# [13] = target: T1, Serine/threonine-protein kinase tousled-like 2; experiment: Binding affinity to full length FLAG/HA/Strep-tagged TLK2 (388 to 772 residues) (unknown origin) transfected in HEK293T cells by Alexa Fluor 647 staining based FRET assay; format: cell-based
# Target sequence in this assay (Q86UE8 whole entry): as the sequence (Q86UE8 whole entry, looked up) above
# MDA-MB-231 [14] = experiment: Induction of cell cycle arrest in human MDA-MB-231 cells assessed as increase in cells at sub G1 phase at 2 uM measured after 72 hrs by PI staining based flow cytometric analysis (reference value: 0.8%); format: functional
# MDA-MB-231 [15] = experiment: Induction of apoptosis in human MDA-MB-231 cells assessed as increase in caspase-9 level at 4 uM incubated for 72 hrs by gel electrophoresis method; format: functional, cell-based
# MDA-MB-231 [16] = experiment: Antiproliferative activity against human MDA-MB-231 cells assessed as reduction in cell growth at 1 uM by trypan blue assay; format: functional, cell-based
# MDA-MB-231 [17] = experiment: Induction of cell cycle arrest in human MDA-MB-231 cells assessed as increase in cells at sub G1 phase at 4 uM measured after 72 hrs by PI staining based flow cytometric analysis (reference value: 0.8%); format: functional
# MDA-MB-231 [18] = experiment: Induction of apoptosis in human MDA-MB-231 cells assessed as increase in caspase-3 level at 4 uM incubated for 72 hrs by gel electrophoresis method; format: functional, cell-based
# [19] = target: T1, Serine/threonine-protein kinase tousled-like 2; experiment: Inhibition of full length FLAG/HA/Strep-tagged TLK2 (unknown origin) transfected in HEK293T cells at 50 uM using GST-ASF1 as substrate preincubated for 15 mins followed by substrate addition and measured after 15 mins in presence of ATP by Western blot analysis; conditions: time 30.0 min
# Target sequence in this assay (Q86UE8 whole entry, looked up): as above
# U2OS [20] = experiment: Induction of DNA damage in PCNA positive human U2OS cells assessed as increase in H2AX phosphorylation at S139 residue in S phase by measuring fluorescence intensity at 10 uM incubated for 4 hrs by immunofluorescence microscopy; format: functional, cell-based
# [21] = target: T1, Serine/threonine-protein kinase tousled-like 2; experiment: Inhibition of full length FLAG/HA/Strep-tagged TLK2 (unknown origin) transfected in HEK293T cells assessed as reduction in TLK mediated ASF1a phosphorylation at 50 uM by Western blot analysis; format: cell-based
# Target sequence in this assay (Q86UE8 whole entry, looked up): as above
# U2OS [22] = experiment: Induction of DNA damage in human U2OS cells assessed as increase in CHK2 phosphorylation at T68 residue at 5 to 10 uM incubated for 4 hrs by Western blot analysis; format: functional, cell-based; conditions: dose 5-10 µM
# [23] = target: T1, Serine/threonine-protein kinase tousled-like 2; experiment: Inhibition of full length FLAG/HA/Strep-tagged TLK2 (unknown origin) in human MDA-MB-231 cells assessed as reduction in ASF1 phosphorylation at 16.7 uM measured after 4 hrs by Western blot analysis; format: cell-based
# Target sequence in this assay (Q86UE8 whole entry, looked up): as above
# U2OS [24] = experiment: Effect on cell cycle progression in human U2OS cells assessed as accumulation of cells at S phase measured after 8 hrs by PI staining based flow cytometric analysis; format: functional; conditions: dose 2.5-20 µM, DDE = dose-dependent effect
# [25] = target: T1, Serine/threonine-protein kinase tousled-like 2; experiment: Inhibition of full length FLAG/HA/Strep-tagged TLK2 (unknown origin) in human U2OS cells assessed as ASF1 phosphorylation by measuring decrease in band shift at 16.7 uM measured after 4 hrs by Western blot analysis; format: cell-based
# Target sequence in this assay (Q86UE8 whole entry, looked up): as above
# U2OS [26] = experiment: Induction of DNA damage in human U2OS cells assessed as increase in RPA2 phosphorylation at S4/S8 residue at 5 to 10 uM incubated for 4 hrs by Western blot analysis; format: functional, cell-based; conditions: dose 5-10 µM
# U2OS [27] = experiment: Induction of DNA damage in human U2OS cells assessed as increase in CHK1 phosphorylation at S345 residue at 2.5 to 5 uM incubated for 4 hrs by Western blot analysis; format: functional, cell-based; conditions: dose 2.5-5 µM
# U2OS [28] = experiment: Inhibition of DNA replication in PCNA positive human U2OS cells assessed as reduction in EdU level at 2.5 to 20 uM incubated for 4 hrs by immunofluorescence staining based EdU incorporation assay; format: functional, cell-based; conditions: dose 2.5-20 µM
# U2OS [29] = experiment: Induction of DNA damage in human U2OS cells assessed as increase in KAP1 phosphorylation at S824 residue at 5 to 10 uM incubated for 4 hrs by Western blot analysis; format: functional, cell-based; conditions: dose 5-10 µM
# U2OS [30] = experiment: Inhibition of DNA replication in PCNA positive human U2OS cells assessed as reduction in EdU level at 50 uM incubated for 4 hrs by immunofluorescence staining based EdU incorporation assay; format: functional, cell-based
# [31] = target: T1, Serine/threonine-protein kinase tousled-like 2; experiment: Inhibition of full length FLAG/HA/Strep-tagged TLK2 (unknown origin) in human U2OS cells assessed as reduction in ASF1 phosphorylation at 16.7 uM measured after 4 hrs by Western blot analysis; format: cell-based
# Target sequence in this assay (Q86UE8 whole entry, looked up): as above
# U2OS [32] = experiment: Effect on cell cycle progression in human U2OS cells assessed as accumulation of cells at early stage of S phase measured after 8 hrs by PI staining based flow cytometric analysis; format: functional
SMILES,IC50 (MDA-MB-231 [1]),IC50 (A549),IC50 at 72 h [2],Activity (MDA-MB-231 [3]),IC50 at 72 h [4],inhibition of ASF1a S166 phosphorylation (active/inactive call) [5],IC50 (HCT-116),inhibition [6],further results
CN1CCCCC1CCO/N=C1/C(=C2/C(=O)Nc3ccc(F)cc32)Nc2ccccc21 (centres undefined),530 nM,600 nM,> 2000 nM,40%,> 2000 nM,Active,600 nM,Active,–
CN1CCCCC1CCO/N=C1/C(=C2/C(=O)Nc3ccccc32)Nc2ccc(F)cc21 (centres undefined),–,–,–,<30%,–,–,–,–,–
CN(C)CCCO/N=C1/C(=C2/C(=O)Nc3ccccc32)Nc2ccccc21,440 nM,610 nM,> 2000 nM,40%,> 2000 nM,Active,710 nM,Active,Activity (MDA-MB-231 [7]): Active; Activity (MDA-MB-231 [8]): Active
CN1CCCC1CCO/N=C1/C(=C2/C(=O)Nc3ccccc32)Nc2ccccc21 (centres undefined),250 nM,260 nM,> 2000 nM,40%,> 2000 nM,Active,370 nM,Active,Activity (MDA-MB-231 [9]): Active; Activity (MDA-MB-231 [10]): Active; Activity (MDA-MB-231 [11]): Active; Activity (MDA-MB-231 [7]): Active; Activity (MDA-MB-231 [12]): Active; IC50 [13]: 18.6 nM; Activity (MDA-MB-231 [14]): 15.4%; Activity (MDA-MB-231 [8]): Active; Activity (MDA-MB-231 [15]): Active; Activity (MDA-MB-231 [16]): Active; Activity (MDA-MB-231 [17]): 25.6%; Activity (MDA-MB-231 [18]): Active
COc1ccc2c(c1)c(C1=C(c3c[nH]c4ccccc34)C(=O)NC1=O)cn2CCCN(C)C,–,–,–,–,–,–,–,–,inhibition [19]: Active
CN(C)CCCn1cc(C2=C(c3c[nH]c4ccccc34)C(=O)NC2=O)c2ccccc21,–,–,–,–,–,–,–,–,inhibition [19]: Active
CN1CCCCC1CCO/N=C1/C(=C2/C(=O)Nc3ccc([N+](=O)[O-])cc32)Nc2ccccc21 (centres undefined),–,–,–,40%,–,Active,–,Active,–
CN1CCC(O/N=C2/C(=C3/C(=O)Nc4ccccc43)Nc3ccccc32)CC1,250 nM,190 nM,> 2000 nM,40%,> 2000 nM,Active,390 nM,Active,Activity (MDA-MB-231 [10]): Active; Activity (MDA-MB-231 [7]): Active; IC50 [13]: 33.1 nM; Activity (MDA-MB-231 [8]): Active
CN1CCCCC1CCO/N=C1/C(=C2/C(=O)Nc3cc(F)ccc32)Nc2ccccc21 (centres undefined),–,–,–,<30%,–,–,–,–,–
CN1CCCCC1CCO/N=C1/C(=C2/C(=O)Nc3cc(Cl)ccc32)Nc2ccccc21 (centres undefined),–,–,–,–,–,Active,–,–,–
CN1CCCCC1CCO/N=C1/C(=C2/C(=O)Nc3ccccc32)Nc2ccccc21 (centres undefined),1170 nM,1210 nM,> 2000 nM,<30%,> 2000 nM,–,1280 nM,–,Activity (U2OS [20]): Active; inhibition [21]: Active; IC50 [13]: 163 nM; Activity (U2OS [22]): Active; inhibition [23]: Active; Activity (U2OS [24]): Dde; inhibition [25]: Active; Activity (U2OS [26]): Active; Activity (U2OS [27]): Active; inhibition (U2OS [28]): Active; Activity (U2OS [29]): Active
NC(=O)NO,–,–,–,–,–,–,–,–,inhibition (U2OS [30]): Active; inhibition [31]: Active; Activity (U2OS [32]): Active
CN[C@@H]1C[C@H]2O[C@@](C)([C@@H]1OC)n1c3ccccc3c3c4c(c5c6ccccc6n2c5c31)C(=O)NC4,–,–,–,–,–,–,–,–,inhibition [19]: Active

# From ChEMBL document CHEMBL5143513, “Design, synthesis and biological evaluation of bisindole derivatives as anticancer agents against Tousled-like kinases” (Eur J Med Chem, 2022)
